Reference: patent US20050192279A1, “Pyridazinones as antagonists of alpha4 integrins” (priority 2004, published 2005)
“And” between values parts separate entries of the source, which are not always exact repeats. Identical values can stand only once.

Columns and labels:
[1] = system: circulating leukocytes; assay: In Vivo Model for Leukocytosis; design: species or system Balb/c mice; conditions: bled 1-1.5 h after administration
From the text: In Vivo Model for Leukocytosis
Leukocytosis is the increase in circulating white blood cells (leukocytes). This can be brought about by preventing leukocyte binding to counter-receptor adhesion molecules expressed on high endothelial venules. This cell adhesion occurs between immunoglobulin superfamily molecules and integrins. Relevant examples of these paired interactions include […] Adhesion Molecule-1 and AlphaL Beta2 integrin, Vascular Cell Adhesion Molecule-1 and α4β1 integrin, and Mucosal Addressin Cell Adhesion Molecule-1 and α4β7 integrin, respectively.
In this model, a compound that antagonizes these leukocyte-endothelial interactions will cause an increase in circulating leukocytes, defined as leukocytosis, as measured at 1-1.5 h post-administration. This leukocytosis is indicative that normal lymphocyte or leukocyte emigration from the peripheral circulation was prevented. Similar emigration of cells out of the circulation into inflamed tissues is responsible for the progression and maintainance of the inflammatory state. Leukocytosis is an indication that lymphocyte and leukocyte extravasation is prevented, and is predictive of general anti-inflammatory activity.
One week prior to being tested, 7-10 week old female Balb/c mice, n=8 per group, were bled and randomized according to leukocyte counts. One week later, the mice were adminstered test compound orally or subcutaneously and then bled 1-1.5 h after drug administration, approximately 1 h after the peak blood concentration of the compound occurred. Whole blood, 250-350 microliters, was collected from each mouse into potassium-EDTA serum collection tubes (Becton-Dickenson) and mixed to prevent clotting.
Cell counts and differential counts on the whole blood preparation were performed using an Advia 120 Hematology System (Bayer Diagnostics). Cell counts as total leukocytes and as total lympohcytes were made and compared to counts made from mice dosed with vehicle only. Data were reported as percent of vehicle control for lymphocyte counts and total leukocyte counts.
Statistical analyses were performed using ANOVA with Dunnet's multiple comparison test.

[2] = system: DSS induced colitis; assay: Dextran Sulfate Sodium (DSS) Induced Colitis; type: in vivo, Balb/c female mice and C57Black/6 mice
From the text: In Vivo Model for Colitis: Dextran Sulfate Sodium (DSS) Induced Colitis Inflammatory bowel diseases such as ulcerative colitis and Crohn's disease are characterized by diminished intestinal barrier function, apparent inflammatory damage that may include erosive loss of intestinal mucosa, and inflammatory infiltrates in the mucosa and submucosa. […] Among the many possible chemicals used are dextran sulfate sodium (DSS) and trinitrobenzene sulfonic acid (TNBS). The dextran sulfate sodium model of experimental colitis is characterized by a shrinkage of the colon's length, macrosopic inflammatory damage, diarrhea, a discontinuous pattern of mucosal epithelial damage in the distal colon with infiltration of inflammatory cells that include macrophages and neutrophils into the mucosa and submucosa (Blumberg, R. S., Saubermann, L. J., and Strober, W. Animal models of mucosal inflammation and their relation to human inflammatory bowel disease. Current Opinion in Immunology, 11: 648-656, 1999; […]., and Nakaya, R. A novel method of induction of reliable experimental acute and chronic colitis in mice. […] Cooper, […]., and […]. Clinicopathologic study of dextran sulfate sodium experimental murine colitis. Lab Invest., 69: 238-249, 1993; […]., Bajaj-Elliott, M., MacDonald, […]., and Buchler, M. W. Characterization of acute murine dextran sodium sulphate colitis: Cytokine profile and dose dependency. Digestion, 62: 240-248, 2000; […]., Husband, A. J., and Doe, W. F. The inflammatory infiltrate in the acute stage of the dextran sulphate sodium induced colitis: B cell response differs depending on the percentage of DSS used to induce it. BMC Clinical Pathology, 1: 3-13, 2001; and Diaz-Granados, Howe, K., Lu, J, and […]. Dextran sulfate sodium-induced colonic histopathology, but not altered epithelial ion transport, is reduced by inhibition of phosphodiesterase activity. Amer. J. Pathology, 156: 2169-2177, 2000). Balb/c female mice and […]/6 mice were used in these studies. […] When […]/6 mice were used, a solution of tap water containing 4% DSS was used. During the ensuing 7-day period, test animals were administered a preparation of an experimental compound. This material may be administered orally or intraperitoneally or subcutaneously, once or twice daily. At the end of this period, the animals were euthanized and their colons were collected for further analysis. Among the parameters analyzed were the length of the colon starting from the anus to the top of the cecum, the consistency of any stools found within the colon, and the gross macroscopic appearance of the colon. The distal colon between the 1st and the 4th centimeter was removed and placed in 10% neutral buffered formalin for later histological analysis. For the following parameters, colon length, stool consistency and appearance, and macroscopic damage a scoring system is used to describe the changes. […] Thus, […] Histological analyses of tissues consisted of staining paraffin-embedded tissue sections with hematoxylin-eosin dye. Epithelial damage scores were determined as the fraction of the tissue section showing damaged epithelium. […] Statistical analysis performed in Graphpad Prism 4.0 using ANOVA with Dunnet's or Bonferroni's multiple comparison's test.

[3] = system: TNBS induced colitis; assay: Trinitrobenzenesulfonic acid (TNBS) Induced Colitis, rats; type: in vivo, Male Wistar rats; conditions: rat
From the text: In Vivo Model: Trinitrobenzenesulfonic acid (TNBS) Induced Colitis The TNBS model of experimental colitis (Bobin-Dubigeon, C., Collin, X., Grimaud, N., Robert, J-M., Guillaume Le Baut, G., and Petit, J-Y. Effects of tumour necrosis factor-a synthesis inhibitors on rat trinitrobenzene sulphonic acid-induced chronic colitis. Eur. J. […] These symptomatic signs in the above—mentioned models are similar to what occur in human colitis. Male Wistar rats (200-250 g) are inoculated with 500 microliters of a solution of 10 to 20 mg of TNBS in 30% ethanol delivered intracolonically via catheter or ball-tipped gavage needle to the 8th cm from the anus. When Balb/c female mice (8-12 weeks of age) were used, the inoculation volume was 50 microliters containing 2-3 mg of TNBS in 30% ethanol delivered intracolonically via catheter or ball-tipped gavage needle to the 4th cm from the anus. During the ensuing 7 days, test animals were administered a preparation of an experimental compound. This material may be administered orally, subcutaenously or intraperitoneally, once or twice daily. At the end of this period, the animals were euthanized and their colons were collected for further analysis. Among the parameters analyzed were the length of the colon starting from the anus to the top of the cecum, the weight of the colon, the consistency of any stools found within the colon, the presence or absence of intraperitoneal adhesions on the serosal surfacr of the intestin, and the gross macroscopic appearance of the colon. […] In rats, the distal colon between the 5th and the 8th centimeter is dissected and placed in 10% neutral buffered formalin for later histological analysis. In mice, the 1st to the 4th cm was collected for histological analyses. For the following parameters—colon length, colon weight, stool consistency and appearance and macroscopic damage—a scoring system was used to describe the changes. The four scores for each animal were added to provide a Total Score. […] For the presence of blood in stool, one point was added to scores <3. […] Histological analyses of tissues consisted of staining paraffin-embedded tissue sections with hematoxylin-eosin dye. Epithelial damage scores were determined as the fraction of the tissue section showing damaged epithelium. […] Statistic analyses for these experiments performed with Graphpad Prism 4.0, using ANOVA, with Dunnets or Bonferroni's multiple comparisons test.

[4] = system: eosinophil peroxidase levels in ear punches; assay: PMA-Induced Inflammation in Mouse Ear Skin and Measurement of Eosinophil Peroxidase; type: in vivo, BALB/C mice; conditions: total dose 5 mg/kg po bid; ear punches 24 h after PMA; 5 mg/kg
Procedure: Phorbol 12-Myristate 13-Acetate (PMA)-Induced Inflammation in Mouse Ear Skin and Measurement of Eosinophil Peroxidase
Phorbol 12-myristate 13-acetate (PMA) when applied to skin, generates a vigorous recruitment of immune cells to the site of application. Over a 24 hour period, there is accumulation of fluid and cells to the inflamed site, and thus is a general indicator of an inflammatory response. Among the recruited cells are eosinophils and neutrophils. Eosinophils can migrate into an inflamed or infected tissue via alpha 4 beta 1 integrin interactions with vascular cell adesion molecule-1 (VCAM-1) counter-receptors on vascular endothelial cells, and via alpha 4 beta 7 integrin to mucosal addressin cellular adhesion molecule on vascular endothelial cells in the gastrointestinal tract and mesenteric system. The recruited esoinophils can be quantified by measuring the presence of eosinophil peroxidase in a sample of the homogenized tissue.
Female BALB/C mice are ordered at 6 weeks of age and 16-18 grams from Charles River were used between 6-10 weeks of age. The animals were randomly assigned to groups of 10 (5/box) and housed in groups in plastic cages in a room with 12 h light-dark cycle and controlled temperature and humidity. They received food and water ad libitum.
Phorbol 12-myristate 13-acetate (PMA) was dissolved as 5 mg per mL stock in dimethyl sulfoxide (DMSO) and stored frozen as 20 microliter aliquots. For application to mouse ears, each aliquot was diluted in 2 mL with acetone.
The right ear of each mouse was treated topically with 20 microliters of acetone solution (10 microliters to each side of the ear) containing either 1 microgram of phorbol 12-myristate 13-acetate (PMA) or acetone alone.
Drugs that were tested orally were administered at −1 and +3 hours relative to PMA application.
Mice were sacrificed 24 h after PMA application. The right ear was punched with a 6 mm tissue punch and the tissue was placed in a tube on dry ice and kept frozen until extraction.
One tablet of phosphate citrate buffer was dissolved with urea hydrogen peroxide in 100 ml of water in which one tablet containing 60 mg of o-phenylenediaminedihydrochloride was added.
Ear tissue samples were homogenized in 2 ml of HTAB for 15 sec at speed 5.5 with a Polytron (large head) (Brinkman Instruments). The homogenate was stored at −20° C. until assayed. […]
Samples were typically tested at either a 1:2 or 1:4 dilution made with HTAB. […] Absorbance was read at 490 nm for the specific with subtraction of a 650 nm noise signal using a Thermomax 96-well spectrophotmetric plate reader (Molecular Devices). […]
The inhibition of PMA-induced ear edema was measured by eosinophil peroxidase levels in ear punches. […]

[5] = 30 mg/kg po bid, C57 Black/6 mice
[6] = 60 mg/kg po bid, C57 Black/6 mice

## COc1cnn(CCO)c(=O)c1-c1ccc(C[C@H](NC(=O)OC(C)(C)C)C(=O)OCCO)cc1 [Cpd 231]
[1]; 3 mg/kg po
  Lymphoycte Counts % of Vehicle Control: 114.5%
  Total Leukocyte Count % of Vehicle Control: 110.7%
[1]; 10 mg/kg po
  Lymphoycte Counts % of Vehicle Control: 94.0%
  Total Leukocyte Count % of Vehicle Control: 98.0%
[1]; 30 mg/kg po
  Lymphoycte Counts % of Vehicle Control: 88.7%
  Total Leukocyte Count % of Vehicle Control: 86.9%
[2]; [5]
  % Inhibition of Epithelial Damage Score: 23.91%
  % Inhibition of Total Macroscopic Score: 13.4%
[2]; 30 mg/kg po bid, balb/c mice
  % Inhibition of Total Macroscopic Score: 43.8%
[2]; [6]
  % Inhibition of Epithelial Damage Score: 53.9%
  % Inhibition of Total Macroscopic Score: 23.4%
[2]; 60 mg/kg po bid, balb/c mice
  % Inhibition of Epithelial Damage Score: 36.5%
  % Inhibition of Total Macroscopic Score: 47.7%
[3]; 30 mg/kg po bid
  % Inhibition of Epithelial Damage Score: 24.69%
  % Inhibition of Total Macroscopic Score: 19.33%
[3]; 60 mg/kg po bid
  % Inhibition of Epithelial Damage Score: 38.64%
  % Inhibition of Total Macroscopic Score: 5.455%

## C[C@@H]1C[C@H]2[C@@H]3CCC4=CC(=O)C=C[C@]4(C)[C@@]3(F)[C@@H](O)C[C@]2(C)[C@@]1(O)C(=O)CO [dexamethasone]
[4]
  % Inh. of Eosinophil Peroxidase: 83.6% and 109.0%
